Source: patent publication US10414797B2, “Gelatinase inhibitors and use thereof” (Iproteos S.L, priority 2015, dated 2019)

Target: MMP-9 (Homo sapiens, UniProt P14780)
Assay: MMP-9 inhibition assay (fluorimetric, DQ gelatin substrate)
Type: biochemical
Conditions: recombinant MMP-9 (Merck-Millipore for examples 1 to 9 and comparative examples; Enzo for examples 10 to 16), DQ gelatin 50 μg/mL, 4 hours at room temperature, pH 7.6
Description: All the experiments were done in 1× reaction buffer, which was obtained from a 10× reaction buffer solution. The content of the 10× reaction buffer was: 50 mL of 0.5 M Tris-HCl, 1.5 M NaCl, 50 mM CaCl2 and 2 mM sodium azide at pH 7.6. To obtain the 1× reaction buffer 4 mL of the 10× reaction buffer were diluted in 36 mL of H2O.
Recombinant MMP-9 expressed was obtained from Merck-Millipore (catalog number PF140-5UG, used in examples 1 to 9 and comparative examples) and Enzo (catalog number-SE360-0010, used in examples 10 to 16). DQ gelatin from pig skin fluorescein conjugated (MMP-9 substrate) was obtained from Life Technologies (catalog number E12055).
Preparation of the MMP-9 for the activity assay: MMP-9 was provided as a stock solution (0.1 mg/mL). The enzyme was diluted in 1× reaction buffer to a final concentration of 5 μg/mL.
Preparation of the DQ gelatin (substrate) solution for the activity assay: the solid form of the substrate was dissolved in water in order to obtain a stock solution of 1 mg/mL.
Procedure: The enzymatic assays were performed in 96-well microtiter plate, which allowed simultaneous monitoring of multiple reactions. For each reaction, 84.6 μL of 1× reaction buffer (pH 7.6), […] of MMP-9 (final concentration 85 ng/mL) and 2 μL of the corresponding new compound were added to each well. A stock solution of new compound was prepared in DMSO (100 mM), and dilutions were prepared from this stock solution with DMSO. Finally, to the mixture contained in each well 10 μL of the substrate were added (final concentration 50 μg/mL). The reaction was incubated for 4 hours at room temperature in an orbital shaker (100 rpm).
The inhibitory activity of the new compound was measured fluorimetrically. The excitation and emission wavelengths were 483 and 525 nm, respectively.
Inhibitory activity at several concentration points (ranging from 100 pM to 200 μM MMP) were measured for each compound. The inhibitory activity on MMP-2 and MMP-9 was calculated according to eq 1. For each new compound, the fluorescence in the presence (a) and in the absence (b) of the corresponding MMP was measured. The maximum fluorescence (0% inhibitory activity) was obtained from a sample of the corresponding MMP in the absence of inhibitory compounds. To estimate the inhibitory potency of the novel compounds, activities were plotted against the log concentration of the compound, adjusting to a sigmoid curve using GraphPad Prism software, and the IC50 value, defined as the concentration of compound required to inhibit 50% of the corresponding MMP activity, was determined from resulting curve.
a corresponds to fluorescence intensity in the presence of substrate+test compound+MMP
b corresponds to the fluorescence intensity in the presence of substrate+tested compound
c corresponds to the fluorescence intensity in the presence of substrate+MMP
d corresponds to the fluorescence intensity of the presence of substrate

MMP-9, sequence (P14780 107-707 limits assumed): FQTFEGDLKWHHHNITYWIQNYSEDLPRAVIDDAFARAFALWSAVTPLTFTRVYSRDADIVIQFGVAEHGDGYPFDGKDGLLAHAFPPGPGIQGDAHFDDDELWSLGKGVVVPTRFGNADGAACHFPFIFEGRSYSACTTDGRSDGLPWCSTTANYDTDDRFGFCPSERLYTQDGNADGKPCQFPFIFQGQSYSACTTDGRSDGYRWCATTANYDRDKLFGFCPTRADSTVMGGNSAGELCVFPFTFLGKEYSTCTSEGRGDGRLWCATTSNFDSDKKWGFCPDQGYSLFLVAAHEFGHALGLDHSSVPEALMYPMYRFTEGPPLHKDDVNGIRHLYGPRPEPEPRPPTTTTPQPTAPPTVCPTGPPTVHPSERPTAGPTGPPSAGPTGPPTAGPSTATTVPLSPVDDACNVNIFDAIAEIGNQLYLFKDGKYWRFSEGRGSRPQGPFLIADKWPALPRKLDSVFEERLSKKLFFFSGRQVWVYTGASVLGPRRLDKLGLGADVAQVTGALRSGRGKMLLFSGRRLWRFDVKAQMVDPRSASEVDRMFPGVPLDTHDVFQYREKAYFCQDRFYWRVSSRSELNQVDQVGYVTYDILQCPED

Question: With `CCCCCCCC(=O)N1CCC[C@H]1C(=O)N(C)[C@H](C(=O)N[C@@H](CCNC(=O)c1cc(F)cc(F)c1)C(=O)NO)C(C)CC` (stereo partly drawn) [Example 6, (2S)—N-[(1S)-1-[[(1S)-3-[(3,5-difluorobenzoyl)amino]-1-(hydroxycarbamoyl)propyl]carbamoyl]-2-methyl-butyl]-N-methyl-1-octanoyl-pyrrolidine-2-carboxamide] as the molecule, how does the IC50 read?
Answer: The IC50 was 0.733 µM.
